Marks after values point to notes of the source that are not given here.
Assay: logP by HPLC (EEC Directive 79/831 Annex V.A8)
Format: physicochemical
Conditions: for chromatographic logP: pH 2.7, given in the preparation examples, read-out: log P (pH 2.7)
[1] = [b] LC-MS, acidic range, pH 2.7, 0.1% aqueous formic acid and acetonitrile
[2] = [c] LC-MS, neutral range, pH 7.8, 0.001 molar aqueous ammonium bicarbonate and acetonitrile

Row | Structure (SMILES) | logP [1] | logP [2] | chromatographic logP
1 | COc1ccc(Cl)cc1NC(=O)N1CCC(c2nc(C(=O)OCc3ccccc3Br)cs2)CC1 [Example 105] | 4.35 | 4.36 | –
2 | Cc1ccc(Cl)c(NC(=O)N2CCC(c3nc(C(=O)OCc4ccccc4Br)cs3)CC2)c1 [Example 107] | 4.28 | 4.33 | –
3 | Cc1ccc(Cl)cc1NC(=O)N1CCC(c2nc(C(=O)OCc3c(F)cccc3Cl)cs2)CC1 [Example 161] | 3.89^[b] | – | –
4 | COc1ccc(C)cc1NC(=O)N1CCC(c2nc(C(=O)OCc3ccccc3Br)cs2)CC1 [Example 104] | 4.08 | 4.12 | –
5 | Cc1ccc(C)c(NC(=O)N2CCC(c3nc(C(=O)OCc4ccccc4Cl)cs3)CC2)c1 [Example 135] | 3.73^[b] | – | –
6 | Cc1noc(C)c1NC(=S)N1CCC(c2nc(C(=O)OCc3ccccc3Br)cs2)CC1 [Example 119] | 3.2 | 3.21 | –
7 | Cc1ccc(F)cc1NC(=O)N1CCC(c2nc(C(=O)OCc3ccccc3Br)cs2)CC1 [Example 90] | 3.77 | 3.75 | –
8 | Cc1sc(-c2ccccc2)nc1CC(=O)N1CCC(c2nc(C(=O)OC3CCCCC3)cs2)CC1 [Example 21] | 4.57^[b] | – | –
9 | O=C(OCc1c(F)cccc1F)c1csc(C2(F)CCN(C(=O)Cn3nc(C(F)F)cc3C(F)F)CC2)n1 [Example 168] | 3.53 | 3.56 | –
10 | Cc1ccc(C)c(CC(=O)N2CCC(c3nc(C(=O)OC4CCCc5ccccc54)cs3)CC2)c1 (centres unmarked) [Example 96] | 4.54^[b] | – | –
11 | Cc1ccc(Cl)cc1NC(=O)N1CCC(F)(c2nc(C(=O)OC3CCCCC3)cs2)CC1 [Example 167] | 4.33 | 4.32 | –
12 | Cc1ccc(C)c(NC(=O)N2CCC(c3nc(C(=O)O[C@H]4CCCC[C@@H]4c4ccccc4)cs3)CC2)c1 [Example 123] | 4.42^[b] | – | –
13 | O=C(OCc1ccccc1Br)c1csc(C2CCN(C(=S)Nc3cc(Cl)ccc3F)CC2)n1 [Example 115] | 4.15 | 4.14 | –
14 | O=C(OC1CCCCC1)c1csc(C2CCN(C(=O)CC3CCCC3)CC2)n1 [Example 83] | 4.15 | 4.12 | –
15 | Cc1ccc([N+](=O)[O-])cc1NC(=O)N1CCC(c2nc(C(=O)OCc3ccccc3Br)cs2)CC1 [Example 110] | 3.69 | 3.70 | –
16 | Cc1cc(C(F)(F)F)nn1CC(=O)N1CCN(c2nc(C(=O)OCc3ccc(F)cc3F)cs2)CC1 [Example 53] | 3.42 | 3.45 | –
17 | COc1cccc(F)c1C(C)OC(=O)c1csc(C2CCN(C(=O)Nc3cc(C)ccc3C)CC2)n1 (centres unmarked) [Example 138] | 3.79^[b] | – | –
18 | O=C(OCc1ccccc1Br)c1csc(C2CCN(C(=S)Nc3cc(F)ccc3Br)CC2)n1 [Example 114] | 4.04 | 4.02 | –
19 | O=C(OC1CCCCC1)c1csc(C2CCN(C(=O)Cc3cc(C(F)(F)F)ccc3Cl)CC2)n1 [Example 12] | 4.64^[b] | – | –
20 | Cc1cc(C(F)(F)F)nn1CC(=O)N1CCN(c2nc(C(=O)OC3CCCc4ccccc43)cs2)CC1 (centres unmarked) [Example 43] | 3.98 | 3.91 | –
21 | Cc1cc(C(F)(F)F)nn1CC(=O)N1CCN(c2nc(C(=O)Oc3ccc4ccccc4c3)cs2)CC1 [Example 40] | 3.81 | 3.76 | –
22 | Cc1cc(CC(=O)N2CCC(c3nc(C(=O)OC4CCCCC4)cs3)CC2)c(C)s1 [Example 20] | 4.24^[b] | – | –

Row | Structure (SMILES) | logP [1] | logP [2] | chromatographic logP
23 | Cc1cc(C(F)(F)F)nn1CC(=O)N1CCN(c2nc(C(=O)Sc3cc(C(F)(F)F)ccc3Cl)cs2)CC1 [Example 33] | 4.51^[b] | – | –
24 | COc1ccc(OC)c(NC(=O)N2CCC(c3nc(C(=O)OC4CCCCC4)cs3)CC2)c1 [Example 93] | 3.76^[b] | – | –
25 | O=C(OC1CCCCC1)c1csc(C2CCNCC2)n1 [VII-1, 4-{4-[(Cyclohexyloxy)carbonyl]-1,3-thiazol-2-yl}piperidinium chloride] | – | – | 1.25
26 | Cc1nc(C)n(CC(=O)N2CCC(c3nc(C(=O)Oc4cccc5ccccc45)cs3)CC2)n1 [Example 28] | 2.17^[b] | – | –
27 | Cc1oc(-c2ccccc2)nc1CC(=O)N1CCC(c2nc(C(=O)Oc3cccc4ccccc34)cs2)CC1 [Example 24] | 4.04^[b] | – | –
28 | O=C(OCc1ccccc1Br)c1csc(C2CCN(C(=O)Nc3cc(C(F)(F)F)ccc3F)CC2)n1 [Example 111] | 4.29^[c]; 4.29^[b] | 4.29^[c]; 4.29^[b] | –
29 | COc1ccc(COC(=O)c2csc(N3CCN(C(=O)Cn4nc(C(F)(F)F)cc4C)CC3)n2)cc1 [Example 35] | – | 3.19^[c] | –
30 | Cc1cc(C(F)(F)F)nn1CC(=O)N1CCN(c2nc(C(=O)Oc3cccc4cccnc34)cs2)CC1 [Example 36] | 2.85 | 2.83 | –
31 | CCCCC(=O)N1CCC(c2nc(C(=O)OC3CCCCC3)cs2)CC1 [Example 4] | 3.64^[b] | – | –
32 | Cc1ccc(C)c(NC(=O)N2CCC(c3nc(C(=O)Oc4ccccc4Cl)cs3)CC2)c1 [Example 148] | 3.51^[b] | – | –
33 | O=C(OC1CCCCC1)c1csc(C2CCN(C(=O)Cc3cc(Cl)ccc3C(F)(F)F)CC2)n1 [Example 18] | 4.68^[b] | – | –
34 | Cc1ccc(F)cc1NC(=S)N1CCC(c2nc(C(=O)OCc3ccccc3Br)cs2)CC1 [Example 117] | 3.98^[c]; 3.98^[b] | 3.98^[c]; 3.98^[b] | –
35 | Cc1noc(C)c1NC(=O)N1CCC(c2nc(C(=O)OC3CCCc4ccccc43)cs2)CC1 (centres unmarked) [Example 98] | 2.97^[b] | – | –
36 | Cc1ccc(C)c(NC(=O)N2CCC(c3nc(C(=O)OCc4c(F)cccc4F)cs3)CC2)c1 [Example 121] | 3.38^[b] | – | –
37 | O=C(Oc1c(F)cccc1Cl)c1cnc(C2CCN(C(=O)Cn3nc(C(F)F)cc3C(F)F)CC2)s1 [Example 176] | 3.67^[b] | – | –
38 | Cc1ccc(C)c(NC(=O)N2CCC(c3nc(C(=O)Oc4ccccc4I)cs3)CC2)c1 [Example 154] | 3.69^[b] | – | –
39 | CC(C)(C)OC(=O)N1CCC(c2nc(C(=O)O)cs2)CC1 [XXXI-1, 2-[1-(tert-Butoxycarbonyl)piperidin-4-yl]-1,3-thiazole-4-carboxylic acid] | – | – | 2.04
40 | Cc1cc(C(F)(F)F)nn1CC(=O)N1CCN(c2nc(C(=O)OC3Cc4ccccc4C3)cs2)CC1 [Example 41] | 3.64 | 3.56 | –
41 | Cc1cc(C(F)(F)F)nn1CC(=O)N1CCN(c2nc(C(=O)OCc3ccccc3Cl)cs2)CC1 [Example 48] | 3.64^[c]; 3.64^[b] | 3.64^[c]; 3.64^[b] | –
42 | Cc1ccc(C)c(NC(=O)N2CCC(c3nc(C(=O)OCCc4c(Cl)cccc4Cl)cs3)CC2)c1 [Example 157] | 4.29^[b] | – | –
43 | O=C(OC1CCCCC1)c1csc(C2CCN(C(=O)Cc3cc(Br)ccc3Br)CC2)n1 [Example 15, Cyclohexyl 2-{1-[(2,5-dibromophenyl)acetyl]piperidin-4-yl}-1,3-thiazole-4-carboxylate] | – | – | 4.72
44 | O=C(OC1CCCCC1)c1csc(C2CCN(C(=O)Cc3cc(C(F)(F)F)ccc3Br)CC2)n1 [Example 13] | 4.75^[b] | – | –

Row | Structure (SMILES) | logP [1] | logP [2] | chromatographic logP
45 | Cc1ccc(C)c(NC(=O)N2CCC(c3nc(C(=O)Oc4c(F)cccc4Cl)cs3)CC2)c1 [Example 149] | 3.62^[b] | – | –
46 | Cc1cc(C(F)(F)F)nn1CC(=O)N1CCN(c2nc(C(=O)SCc3ccccc3Cl)cs2)CC1 [Example 49] | 4.29 | 4.32 | –
47 | Cc1ccc(C)c(NC(=O)N2CCC(c3nc(C(=O)Oc4ccccc4F)cs3)CC2)c1 [Example 147] | 3.27^[b] | – | –
48 | Cc1ccc(C)c(NC(=O)N2CCC(c3nc(C(=O)OCc4ccccc4Br)cs3)CC2)c1 [Example 91] | 3.86 | 3.84 | –
49 | O=C(OC1CCCCC1)c1csc(C2CCN(C(=S)Nc3cc(F)ccc3F)CC2)n1 [Example 67] | 3.86^[b] | – | –
50 | O=C(OC1CCCc2ccccc21)c1csc(C2CCN(C(=O)Cc3cc(Cl)ccc3Cl)CC2)n1 (centres unmarked) [Example 99] | 4.73^[b] | – | –
51 | Cc1oc(-c2ccccc2)nc1CC(=O)N1CCC(c2nc(C(=O)OC3CCCCC3)cs2)CC1 [Example 22] | 4.15^[b] | – | –
52 | Cc1ccc(C)c(NC(=O)N2CCC(F)(c3nc(C(=O)O[C@@H]4CCCc5ccccc54)cs3)CC2)c1 [Example 126] | 4.30^[b] | – | –
53 | Cc1ccc(Cl)cc1NC(=O)N1CCC(c2nc(C(=O)OCc3c(F)cccc3F)cs2)CC1 [Example 163] | 3.62^[b] | – | –
54 | Cc1ccc(F)cc1NC(=O)N1CCC(c2nc(C(=O)OC3CCCc4ccccc43)cs2)CC1 (centres unmarked) [Example 79] | 4.00^[b] | – | –
55 | Cc1ccc(Cl)cc1NC(=O)N1CCC(c2nc(C(=O)OC3CCCCC3)cs2)CC1 [Example 72] | 4.10^[b] | – | –
56 | O=C(OC1CCCc2ccccc21)c1csc(C2CCN(C(=S)Nc3cc(F)ccc3F)CC2)n1 (centres unmarked) [Example 124] | 4.06 | 3.94 | –
57 | Cc1ccc(C)c(NC(=O)N2CCC(c3nc(C(=O)OC4CCCCC4c4ccc(F)c(F)c4)cs3)CC2)c1 (centres unmarked) [Example 160] | 4.52^[b] | – | –
58 | Cc1ccc(Cl)cc1NC(=O)N1CCC(F)(c2nc(C(=O)OCc3c(F)cccc3F)cs2)CC1 [Example 166] | 3.87 | 3.86 | –
59 | Cc1cccc(COC(=O)c2cnc(C3CCN(C(=O)Cn4nc(C(F)F)cc4C(F)F)CC3)s2)c1C [Example 177] | 4.00^[b] | – | –
60 | Cc1cc(C(F)(F)F)nn1CC(=O)N1CCN(c2nc(C(=O)OC3CCc4ccccc4C3)cs2)CC1 (centres unmarked) [Example 42] | 3.87 | 3.82 | –
61 | Cc1ccc(F)cc1NC(=O)N1CCC(c2nc(C(=O)OC3CCCCC3)cs2)CC1 [Example 74] | 3.74^[b] | – | –
62 | O=C(OC1CCCCC1)c1csc(C2CCN(C(=O)C(=O)c3cccs3)CC2)n1 [Example 55] | 3.46^[b] | – | –
63 | COc1ccc(C)cc1NC(=O)N1CCC(c2nc(C(=O)OC3CCCc4ccccc43)cs2)CC1 (centres unmarked) [Example 82] | 4.33^[b] | – | –
64 | Cc1cc(C(F)(F)F)nn1CC(=O)N1CCC(F)(c2nc(C(=O)OCc3c(F)cccc3F)cs2)CC1 [Example 165] | 3.65 | 3.67 | –
65 | Cc1cc(C(F)(F)F)nn1CC(=O)N1CCN(c2nc(C(=O)OC(C)C3CCCCC3)cs2)CC1 (centres unmarked) [Example 54] | 4.4 | 4.46 | –
66 | Cc1ccc(C)c(NC(=O)N2CCC(c3nc(C(=O)Oc4c(C)cccc4Br)cs3)CC2)c1 [Example 141] | 3.82^[b] | – | –
